Legend:
[1] = system: BKPyV; assay: Fluorescence focus unit (FFU) assay of infectious BKPyV from treated RPTE/TERT1 cells; type: cell-based, BK polyomavirus; settings: for reduction in infectious virus production: BKPyV MOI 1
Method: (B) Effect of PF-9366 on viral replication: Cells were infected with BKPyV (MOI 1) in media containing appropriate drug concentrations. At 1 hpi infectious media was removed, cells were washed and fresh media with appropriate drug concentrations was added. At 48 hpi cells were harvested and infectious BKPyV was measured by FFU assay. n=3.
Cells were treated with MAT2A inhibitors at 1 hr post infection and were harvested at 48 hr post infection at MOI 1. (A) Total infectious BKPyV synthesis expressed as fold change to DMSO control (FFU titre assay). (B) Total viral protein expression (LTAg and VP1) was analysed by western blot. Tubulin was used as loading control. All error bars represent SEM. Two sample paired T-test was used to determine significance (*p<0.05; **p<0.01; ***p<0.001, ****p<0.0001), all numerical data shown were obtained over 2 independent experiments.
RPTE/hTERT cells were treated with inhibitors at 1 hr post infection (PI), infected at MOI 1. (A) Viral growth curves using FFU titre assay in drug treated and untreated cells infected with BKPyV at MOI 1 for 48 hr PI, 72 hr PI and 96 hr PI. (B) Total viral protein expression (LTAg and VP1) from drug treatments and untreated control was analysed by western blot with samples harvested at 48 hr PI and 96 hr PI. Tubulin was used as loading control. All error bars represent SEM. All numerical data shown were obtained over 2 independent experiments.
The ability for PF-9366 to inhibit the production of infectious virus was then investigated. RPTE/TERT1 cells were once again treated with a concentration range of PF-9366 or DMSO as a control prior to infection, and as before, infected with BKPyV (MOI 1) then washed and media replaced at 1 hpi. At 48 hpi total virus was harvested from each condition and an FFU assay was conducted to determine BKPyV virus titre (FIG. 3B).
For BKPyV infections, RPTE/TERT1, RPTE/TERT1-Cas9 or RPTE/TERT1 MAT2A KO cells were infected with BKPyV at either a multiplicity of infection (MOI) of 5 for growth curves or an MOI of 3 or 1 for all other experiments, diluted in appropriate medium. At 1 hour post infection (hpi) medium was removed, cells were washed twice with phosphate-buffered saline (PBS), and fresh medium was added with or without inhibitors. At 24, 48, 72 or 96 hpi cells were either harvested for western blot, RT qPCR or virus titre by FFU assay, or fixed for immunofluorescence analysis.
FFU assays were used to determine the concentration of infectious BKPyV in experimental samples. RPTE/TERT1 cells were infected with sample dilutions, fixed at 48 hpi in 3% formaldehyde, and immunostained for VP1 expression as described in Evans et al. (Open Biol. 2015 August; 5 (8): 150041).
Example 1: PF-9366 (Sigma-Aldrich) and AG-270 (kindly supplied by Astra Zeneca) were diluted in 100% DMSO. Cells were drug treated at a range of concentrations in REBM supplemented with BulletKit (Lonza) for 3 hours prior to infection. Cells were infected with BK-Dunlop in media and appropriate drug dilution. At 1 hpi infectious media was removed, cells gently washed with PBS and media containing appropriate drug dilutions was added. At 48 hpi cells were either fixed in 3% formaldehyde for microscopy, or harvested by scraping up into fresh drug-free media.
TSG101 inhibitor Ilaprazole (Sigma-Aldrich) was diluted in 100% DMSO. Cells were treated at a range of inhibitor concentrations and combinations, in appropriate media for the cell type used, for either 3 hours prior to infection (HSV-1, Alphavirus and Flavivirus infections) or 1 hour post infection (BKPyV infection).

[2] = system: cell proliferation; settings: value used to set treatment concentration; read-out: proliferative IC50; cited from earlier work
[3] = system: Zika African strain; assay: Western blot of Zika E protein in VERO E6 cells, African strain; type: cell-based, Zika virus; settings: 20 μM, MOI >10, 48 hrs
Method: (B) Zika: VERO E6 cells were plated. The following day 20 μM PF-9366 or DMSO control was added to media. After 3 hrs cells were infected with Zika African strain, American Strain or Mock infected (MOI >10). After 48 hrs cells were harvested by scraping, pelleted and lysed into lysis buffer. Western blot was then conducted on the lysed cells. Protein embedded SDS-PAGE gels were transferred to membranes overnight and then probed for Zika E protein and GAPDH as a control.
For Flavivirus infections VERO E6 cells were infected with either African (Afn) or American (Amer) Zika at a multiplicity of infection (MOI) greater than 10, diluted in appropriate medium. At 1 hour post infection (hpi) medium was removed, cells were washed twice with phosphate-buffered saline (PBS), and fresh medium was added. At 48 hpi cells were either harvested for western blot.
Cell lysate preparation and western blots were performed as described in Ren et al. (J Gen Virol. 2012 February; 93 (Pt 2): 319-329). Primary antibodies used were ab53977 (VP1), PAb416 (LTAg), sc-166452 (MAT2A/1A), ab110226 (VP16), sc-53070 (ICP0), anti-Zika E Protein, and either anti-GAPDH or anti-tubulin as a loading control, followed by IRDye 680LT-, or IRDye 800CW-conjugated secondary antibodies. Imaging was performed using the LI-COR Odyssey Infrared Imaging system. Quantification was performed using LI-COR Image Studio Software. […]

[4] = system: Herpes Simplex Virus-1 (HSV-1); assay: HSV-1 titre by plaque assay (HaCaT cells infected, titrated on VERO cells); type: cell-based; settings: 20 μM, MOI 10, 16 hrs
Method: FIG. 9: Inhibition of MAT2A with PF-9366 reduces Herpes Simplex Virus-1 (HSV-1) virion assembly Immortalised keratinocyte (HaCaT) cells were plated and treated with 20 μM PF-9366 or DMSO control. After 3 hrs cells were infected with HSV-1 (MOI 10). After 16 hrs cells were harvested by scraping and either pelleted for western blot or freeze/thawed for titration. To titre: VERO cells were plated and the following day infected with 10-fold dilutions, at 1 hpi cells were overlayed with CMC/media. At 48 hpi cells were fixed and stained with toluidine blue. To western blot: Pellets were lysed and run on SDS-PAGE gel. Proteins were transferred overnight to nitrocellulose membranes. Membranes were probed for HSV-1 ICP0 and VP16 proteins and Tubulin as a control.
For HSV-1 infections HaCaT cells were infected with HSV-1 at a multiplicity of infection (MOI) of 10 diluted in appropriate medium. At 1 hour post infection (hpi) medium was removed, cells were washed twice with phosphate-buffered saline (PBS), and fresh medium was added with or without inhibitors. At 16 hpi cells were either harvested for western blot or virus titre by plaque assay.
For HSV-1, confluent VERO cell monolayers were infected with 10-fold dilutions of samples. […] Cells were fixed at 48 hpi and stained with toluidine blue, allowing plaques to be counted. […]

For `COc1ccc(-c2c(Nc3ccccn3)[nH]c3c(C4=CCCCC4)c(-c4ccccc4)nn3c2=O)cc1` [AG-270], the “inhibition of BKPyV replication (total infectious BKPyV, FFU titre)” value ([1]; 125 nM, 250 nM, 500 nM and 1 μM, added 1 hr post infection, MOI 1, 48 hr post infection) is given as “significant dose dependent inhibition”, the “potency against BKPyV replication” value ([1]; AG270 1 μM or AZ33 125 nM in conjunction with Ilaprazole (5 μM), compared with MAT2A inhibitor alone) is given as “increased potency” and the IC50 [2] is given as 0.257 µM.
With `CN(C)CCc1nnc2cc(-c3ccccc3)c3cc(Cl)ccc3n12` [PF-9366] the “viral protein expression (Zika E protein), African strain” value [3] was “reduction”, the “reduction in HSV-1 viral titres” value [4] was “greater than 100 fold” and the “reduction in infectious virus production” value ([1]; 2.5 μM (lowest concentration), 48 hpi) was 60%. The “reduction in viral titre for BKPyV” value ([1]; 2.5 μM, MOI 1, 48 hpi) was 2-3 fold, the “reduction in infectious virus production” value ([1]; 40 μM (maximum), 48 hpi) was about 95% and the IC50 [2] was 10 µM.

— patent US20250221981A1, “MAT2A INHIBITOR AND/OR TSG101 INHIBITOR FOR USE IN ANTIVIRAL THERAPY” (CAMBRIDGE ENTERPRISE LIMITED, priority 2022, published 2025)
